The text below walks through data of ChEMBL document CHEMBL1201862, “PubChem BioAssay data set” (2004).

In general, GI50 refers to the concentration at which growth is held to half of that of the control.

Some test systems named below: SK-MEL-28; A498; A549; HL-60; HCT-15; OVCAR-3; MDA-N; TK-10; SR; COLO 205; HOP-92; LOX IMVI; NCI/ADR-RES; KM12; OVCAR-8; SW-620; UACC-257; PC-3; HCC 2998; K562.
Common to all, as to experiment: DTP human tumour cell line panel, 48 h

Molecules are shown by their SMILES.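 How tested: cells in 96-well plates exposed to compound for 48 hours at five concentrations. GI50 marks 50% less growth.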 Activity calls are given as the source filed them. Cut-off read from the data, not from the text of the source: active = GI50 up to about 1.1 µM and inactive = higher.

As for `CS(=O)(=O)N1CC(CCl)c2ccc(NO)cc21` (stereo not given), the GI50 is 19.1 µM (inactive) in the test with SK-MEL-28; 15.2 µM (inactive) in the test on A498; 35.2 µM (inactive) with A549; 1.96 µM (inactive) with HL-60; 14.2 µM with HCT-15; 11.7 µM (inactive) with OVCAR-3. Further, the GI50 with MDA-N is 16.9 µM (inactive); with TK-10, 21.3 µM (inactive); in the test on SR, 2.3 µM (inactive); in the test on COLO 205, 18 µM (inactive); in the test on HOP-92, 14.4 µM (inactive); with LOX IMVI, 13.3 µM (inactive). In addition, the GI50 in the test with NCI/ADR-RES is 4.66 µM (inactive); with KM12, 14.6 µM (inactive); in the test with OVCAR-8, 12.9 µM (inactive); in the test with SW-620, 12.6 µM (inactive); in the test on UACC-257 it was 19.5 µM (inactive); with PC-3, 12 µM (inactive). Moreover, the values for the GI50 in the test on HCC 2998 and in the test with K562 were 14.4 µM (inactive) and 2.88 µM (inactive), respectively.

For `COc1cccc(/N=C/c2cc(OC)c(OC)c(OC)c2)c1`, the GI50 with SK-MEL-28 was > 75.7 µM (inactive); in the test with A498, > 100 µM (inactive); in the test on A549, > 100 µM (inactive); with HL-60 it was > 100 µM (inactive); with HCT-15 it was 56.1 µM; in the test with OVCAR-3, 1 µM (active). The GI50 is 25.8 µM (inactive) in the test with MDA-N; > 100 µM (inactive) in the test with TK-10; > 23.1 µM (inactive) with SR; 17.8 µM (inactive) in the test with COLO 205; > 100 µM (inactive) in the test with HOP-92; > 37.2 µM (inactive) with LOX IMVI. Also, the GI50 was > 100 µM (inactive) in the test on NCI/ADR-RES; 33.2 µM (inactive) in the test on KM12; > 100 µM (inactive) with OVCAR-8; > 100 µM (inactive) in the test with SW-620; > 100 µM (inactive) in the test on UACC-257; > 100 µM (inactive) in the test on PC-3. The GI50 in the test on HCC 2998 was > 88.9 µM (inactive); in the test with K562 it was 3.58 µM (inactive).

As to `O=C1NC(=O)C23C(=O)NC(=O)C12C1C=CC3CC1` (stereo not given), the GI50 in the test on SK-MEL-28 was > 10 µM (inactive); in the test with A498, > 10 µM (inactive); in the test on A549 it was > 10 µM (inactive); in the test with HL-60, > 10 µM (inactive); with HCT-15, more than 10 µM; in the test on OVCAR-3 it was > 10 µM (inactive). For the same compound, the GI50 with MDA-N, with TK-10, with SR, in the test with COLO 205, in the test on HOP-92 and with LOX IMVI was > 10 µM (inactive) throughout. Also, the GI50 in the test with NCI/ADR-RES, in the test with KM12, in the test on OVCAR-8, in the test with SW-620, in the test with UACC-257 and in the test with PC-3 was > 10 µM (inactive) each time. The GI50 with HCC 2998 and in the test on K562 was > 10 µM (inactive) in each case.

On to `C/C(=N/NC(=S)Nc1cccc(C)c1)c1ccccn1`, for which the GI50 is 1.71 µM (inactive) in the test on SK-MEL-28; 1.56 µM (inactive) with A498; 1.87 µM (inactive) in the test on A549; < 0.01 µM (active) in the test with HL-60; 0.0119 µM in the test on HCT-15; < 0.01 µM (active) in the test on OVCAR-3. Moreover, the GI50 was 1.35 µM (inactive) in the test on MDA-N; 0.274 µM (active) with TK-10; < 0.01 µM (active) in the test on SR; < 0.01 µM (active) in the test on COLO 205; 1.17 µM (inactive) in the test with HOP-92; < 0.0121 µM (active) in the test on LOX IMVI. For the same compound, the GI50 was < 0.01 µM (active) in the test on NCI/ADR-RES; 0.141 µM (active) in the test with KM12; < 0.0183 µM (active) in the test on OVCAR-8; < 0.01 µM (active) with SW-620; < 0.01 µM (active) in the test with UACC-257; < 0.01 µM (active) in the test with PC-3. Also, the figures for the GI50 in the test with HCC 2998 and in the test on K562 were 1.91 µM (inactive) and < 0.01 µM (active), respectively.

Turning to `Cc1c(Br)c(Br)c(C)[s+]1[O-]`, the GI50 in the test on SK-MEL-28 is 17.6 µM (inactive); in the test on A498 it was 27.4 µM (inactive); in the test with A549 it was 15.6 µM (inactive); in the test on HL-60, 3.2 µM (inactive); in the test with HCT-15 it was 12.4 µM; in the test with OVCAR-3 it was 5.92 µM (inactive). In addition, the GI50 in the test with MDA-N is 12.6 µM (inactive); in the test with TK-10, 21.2 µM (inactive); with SR, 3.28 µM (inactive); in the test on COLO 205, 2.57 µM (inactive); in the test with HOP-92, 45.9 µM (inactive); in the test with LOX IMVI it was 11.1 µM (inactive). Moreover, the GI50 is 29 µM (inactive) in the test on NCI/ADR-RES; 13.8 µM (inactive) with KM12; 21.6 µM (inactive) in the test on OVCAR-8; 8.89 µM (inactive) in the test on SW-620; 12.2 µM (inactive) in the test with UACC-257; 17.5 µM (inactive) in the test on PC-3. Besides, the GI50 in the test on HCC 2998 is 18.4 µM (inactive); in the test with K562 it was 25.6 µM (inactive).

Take `O=C(O)CN(CC(=O)O)Cc1cc(C#Cc2ccc(C#Cc3ccccc3)cc2)cc(CN(CC(=O)O)CC(=O)O)n1`: the GI50 in the test with SK-MEL-28 was > 52 µM (inactive); in the test on A498 it was 40.6 µM (inactive); in the test on A549, 29.1 µM (inactive); in the test with HL-60, 12.9 µM (inactive); in the test on HCT-15, 5.98 µM; in the test on OVCAR-3 it was 9.02 µM (inactive). The GI50 in the test on MDA-N is 35.6 µM (inactive); in the test with TK-10, 17.5 µM (inactive); with SR it was 18.2 µM (inactive); in the test on COLO 205, 11.5 µM (inactive); with HOP-92 it was 22.9 µM (inactive); in the test on LOX IMVI, 11.1 µM (inactive). In addition, the GI50 in the test on NCI/ADR-RES is 12.7 µM (inactive); with KM12, 16.8 µM (inactive); in the test on OVCAR-8, 11.5 µM (inactive); in the test on SW-620, 15.7 µM (inactive); with UACC-257, 40.8 µM (inactive); in the test with PC-3, 4.12 µM (inactive). In addition, the GI50 with HCC 2998 is 4.63 µM (inactive); in the test with K562 it was 33 µM (inactive).

As for `CC1(C)N=C2C(=O)c3c([nH]c4ccccc34)[C@]3(C)CCC1CC23` (stereo not given in full), the GI50 in the test on SK-MEL-28 was > 6.25 µM (inactive); in the test with A498 it was > 6.25 µM (inactive); in the test with A549, > 6.25 µM (inactive); in the test on HL-60, > 6.25 µM (inactive); in the test on HCT-15, more than 6.25 µM; in the test with OVCAR-3, > 6.25 µM (inactive). In addition, the GI50 in the test with MDA-N, with TK-10, with SR, in the test on COLO 205, with HOP-92 and in the test on LOX IMVI was > 6.25 µM (inactive) throughout. Further, the GI50 with NCI/ADR-RES, in the test on KM12, with OVCAR-8, with SW-620, with UACC-257 and in the test with PC-3 was > 6.25 µM (inactive) in each case. Moreover, the GI50 with HCC 2998 and with K562 was > 6.25 µM (inactive) each time.

Regarding `C=C1C(=O)O[C@H]2[C@@H](O)[C@H](C)CCC/C(C)=C/CC[C@@]3(C)O[C@@H]3C[C@@H]12`, the GI50 was 13.7 µM (inactive) in the test with SK-MEL-28; 12.4 µM (inactive) in the test with A498; 20.5 µM (inactive) with A549; 2.47 µM (inactive) in the test on HL-60; 1.92 µM with HCT-15; 11.3 µM (inactive) with OVCAR-3. Moreover, the GI50 was 11.2 µM (inactive) in the test on MDA-N; 1.86 µM (inactive) in the test with TK-10; 1.88 µM (inactive) in the test on SR; 3.93 µM (inactive) with COLO 205; 2.59 µM (inactive) in the test on HOP-92; 4.43 µM (inactive) with LOX IMVI. Also, the GI50 with NCI/ADR-RES is 6.43 µM (inactive); in the test on KM12, 16.8 µM (inactive); in the test with OVCAR-8, 4.38 µM (inactive); in the test on SW-620, 10.2 µM (inactive); with UACC-257 it was 9.16 µM (inactive); with PC-3 it was 13.7 µM (inactive). The figures for the GI50 with HCC 2998 and in the test on K562 were 13.2 µM (inactive) and 4.06 µM (inactive), respectively.

In the case of `COc1ccc(/C(=N/N=c2\[nH]c3ccccc3n2Cc2ccccc2)C(=O)O)cc1`, the GI50 in the test with SK-MEL-28 was 23.8 µM (inactive); with A498, 13.1 µM (inactive); in the test with A549, 23 µM (inactive); in the test with HL-60, 3.19 µM (inactive); in the test with HCT-15, 12.6 µM; in the test with OVCAR-3, 2.52 µM (inactive). The GI50 is 32 µM (inactive) in the test with MDA-N; 35.3 µM (inactive) in the test on TK-10; 3.29 µM (inactive) in the test with SR; 4.03 µM (inactive) in the test with COLO 205; 11.7 µM (inactive) in the test with HOP-92; 6.89 µM (inactive) in the test on LOX IMVI. Moreover, the GI50 in the test on NCI/ADR-RES was 5.19 µM (inactive); in the test with KM12 it was 17.5 µM (inactive); in the test on OVCAR-8 it was 21.8 µM (inactive); in the test with SW-620 it was 27 µM (inactive); with UACC-257, 29 µM (inactive); in the test on PC-3, 7.41 µM (inactive). The GI50 in the test on HCC 2998 is 10 µM (inactive); with K562, 22.7 µM (inactive).

Consider `CCCCOCCOC1=C(Cl)C(=O)c2c(O)ccc(O)c2C1=O`, for which the GI50 is 0.562 µM (active) with SK-MEL-28; 1.82 µM (inactive) in the test with A498; 2.11 µM (inactive) in the test on A549; 0.0347 µM (active) in the test on HL-60; 0.151 µM in the test on HCT-15; 0.547 µM (active) in the test on OVCAR-3. Also, the GI50 with MDA-N is 0.272 µM (active); with TK-10, 0.578 µM (active); with SR, 0.0995 µM (active); with COLO 205, 0.194 µM (active); in the test on HOP-92, 0.288 µM (active); with LOX IMVI, 0.439 µM (active). For the same compound, the GI50 with NCI/ADR-RES is 0.614 µM (active); in the test on KM12, 1.83 µM (inactive); in the test on OVCAR-8 it was 0.347 µM (active); in the test on SW-620, 0.188 µM (active); with UACC-257, 0.429 µM (active); with PC-3 it was 1.6 µM (inactive). Besides, the GI50 with HCC 2998 is 2.5 µM (inactive); in the test with K562 it was 0.0356 µM (active).
